Measurements reported in the NIST ThermoML archive (doi:10.1016/j.fluid.2013.03.001).

Assays:
[1] = molar heat capacity at constant pressure; conditions: 101.33 kPa, Liquid, Small sample (50 mg) DSC
[2] = 101.33 kPa, Liquid; for viscosity: Concentric cylinders viscometry; for mass density: Vibrating tube method

CCCCn1cc[n+](C)c1.[Cl][Fe-]([Cl])([Cl])[Cl] [1-butyl-3-methylimidazolium tetrachloroferrate]
Conditions | mass density [kg/m3] | molar heat capacity at constant pressure [J/K/mol] | viscosity [mPa·s]
[1], 308.16 K | – | 436.39 | –
[1], 313.16 K | – | 446.09 | –
[1], 318.16 K | – | 446.39 | –
[1], 323.16 K | – | 447.13 | –
[1], 328.22 K | – | 449.63 | –
[1], 333.22 K | – | 451.03 | –
[1], 338.19 K | – | 452.53 | –
[1], 343.18 K | – | 456.2 | –
[1], 348.25 K | – | 457.4 | –
[1], 353.18 K | – | 457.95 | –
[1], 358.25 K | – | 459.31 | –
[1], 363.18 K | – | 460.92 | –
[1], 368.17 K | – | 461.57 | –
[1], 373.21 K | – | 462.88 | –
[1], 378.2 K | – | 463.64 | –
[1], 383.17 K | – | 465.82 | –
[1], 388.2 K | – | 465.66 | –
[1], 393.17 K | – | 466.11 | –
[1], 398.2 K | – | 467.83 | –
[1], 403.2 K | – | 469.12 | –
[1], 408.16 K | – | 469.7 | –
[1], 413.19 K | – | 469.42 | –
[1], 418.19 K | – | 471.44 | –
[1], 423.22 K | – | 470.84 | –
[2], 278.15 K | – | – | 103.3
[2], 283.15 K | – | – | 79.5
[2], 288.15 K | – | – | 62.6
[2], 293.15 K | 1370 | – | 50.2
[2], 294.15 K | 1369.2 | – | –
[2], 295.15 K | 1368.3 | – | –
[2], 296.15 K | 1367.5 | – | –
[2], 297.15 K | 1366.7 | – | –
[2], 298.15 K | 1365.8 | – | 41
[2], 299.15 K | 1365 | – | –
[2], 300.15 K | 1364.2 | – | –
[2], 301.15 K | 1363.3 | – | –
[2], 302.15 K | 1362.5 | – | –
[2], 303.15 K | 1361.7 | – | 33.9
[2], 304.15 K | 1360.9 | – | –
[2], 305.15 K | 1360.1 | – | –
[2], 306.15 K | 1359.2 | – | –
[2], 307.15 K | 1358.4 | – | –
[2], 308.15 K | 1357.6 | – | 28.5
[2], 309.15 K | 1356.8 | – | –
[2], 310.15 K | 1356 | – | –
[2], 311.15 K | 1355.1 | – | –
[2], 312.15 K | 1354.3 | – | –
[2], 313.15 K | 1353.5 | – | 24.2
[2], 314.15 K | 1352.7 | – | –
[2], 315.15 K | 1351.9 | – | –
[2], 316.15 K | 1351.1 | – | –
[2], 317.15 K | 1350.3 | – | –
[2], 318.15 K | 1349.5 | – | 20.8
[2], 319.15 K | 1348.7 | – | –
[2], 320.15 K | 1347.8 | – | –
[2], 321.15 K | 1347 | – | –
[2], 322.15 K | 1346.2 | – | –
[2], 323.15 K | 1345.4 | – | 18.1
[2], 324.15 K | 1344.6 | – | –
[2], 325.15 K | 1343.8 | – | –
[2], 326.15 K | 1343 | – | –
[2], 327.15 K | 1342.2 | – | –
[2], 328.15 K | 1341.4 | – | 15.8
[2], 329.15 K | 1340.6 | – | –
[2], 330.15 K | 1339.8 | – | –
[2], 331.15 K | 1339 | – | –
[2], 332.15 K | 1338.2 | – | –
[2], 333.15 K | 1337.4 | – | 13.9
[2], 334.15 K | 1336.6 | – | –
[2], 335.15 K | 1335.9 | – | –
[2], 336.15 K | 1335.1 | – | –
[2], 337.15 K | 1334.3 | – | –
[2], 338.15 K | 1333.5 | – | 12.4
[2], 339.15 K | 1332.7 | – | –
[2], 340.15 K | 1331.9 | – | –
[2], 341.15 K | 1331.1 | – | –
[2], 342.15 K | 1330.3 | – | –
[2], 343.15 K | 1329.5 | – | 11.1
[2], 344.15 K | 1328.7 | – | –
[2], 345.15 K | 1328 | – | –
[2], 346.15 K | 1327.2 | – | –
[2], 347.15 K | 1326.4 | – | –
[2], 348.15 K | 1325.6 | – | 10
[2], 349.15 K | 1324.8 | – | –
[2], 350.15 K | 1324 | – | –
[2], 351.15 K | 1323.3 | – | –
[2], 352.15 K | 1322.5 | – | –
[2], 353.15 K | 1321.7 | – | 9
[2], 354.15 K | 1320.9 | – | –
[2], 355.15 K | 1320.1 | – | –
[2], 356.15 K | 1319.4 | – | –
[2], 357.15 K | 1318.6 | – | –
[2], 358.15 K | 1317.8 | – | 8.2
[2], 359.15 K | 1317 | – | –
[2], 360.15 K | 1316.3 | – | –
[2], 361.15 K | 1315.5 | – | –
[2], 362.15 K | 1314.7 | – | –
[2], 363.15 K | 1313.9 | – | 7.5
[2], 368.15 K | – | – | 6.9
[2], 373.15 K | – | – | 6.3
